Reference: PMC5478271, “Chemical structure-guided design of dynapyrazoles, cell-permeable dynein inhibitors with a unique mode of action” (eLife, 2017)

Legend:
His-dynein 1 = molecular target: T1, His-dynein 1 (Homo sapiens, UniProt Q14204); assay: Basal ATPase activity of His-dynein 1 (wild-type); format: biochemical; details: 40 µM compound, 1 mM MgATP, 2% DMSO; control 0.66 ± 0.1 s^−1
T1 construct: (wild-type, K1912A, K2601A, AA 1320–4646, uniprot: Q14204); made in house; host or cells: Sf9 insect cells (baculovirus)
Description: ATPase assays using recombinant Dynein 1 (wild-type and mutants) were performed in a buffer containing 25 mM PIPES pH7.0, 30 mM KCl, 1 mM EGTA, 5 mM MgCl2, 0.01% triton X-100, 1 mM DTT, and 20–30 µM taxol (if microtubules were present). For typical conditions, enzyme was incubated with varying concentrations of inhibitor in buffer containing 2% DMSO for 10 min in a volume of 10 μL. When microtubules were present, they were polymerized by stepwise addition of taxol and high concentrations of DMSO (30% final during polymerization reactions), and re-suspended following centrifugation in ATPase buffer to a concentration up to threefold above the final concentration used in the reaction (bovine brain tubulin, no fluoresecent label). For microtubule-stimulated reactions in dose-response format, reactions were assembled by 1:1:1 mixture of 3x enzyme stock, 3x compound stock (in buffer with 6% DMSO), and 3x microtubule stock to each well. For microtubule-stimulated ATPase assays at tubulin concentrations > 2.5 µM, enzyme stock was supplemented with compound stock in pure DMSO (resulting in an intermediate DMSO concentration of 6%), and then the microtubule stock was added. […]
Assembled reaction mixtures (including enzyme, compound, and microtubules, if present) were incubated for 10 min before addition of ATP. […] The fraction of γ-phosphate hydrolyzed in each condition was quantified using FIJI.

[1] = system: Gli-driven luciferase reporter in NIH-3T3 (Shh-Light2) cells; assay: Hedgehog pathway activity, Gli-driven luciferase reporter (Shh-Light2 cells, SAG-stimulated); format: cell-based; details: for Concentration at which cell death was observed: 28 hr time course, ~10-fold above the IC50; for IC50: Shh Light2, SAG 500 nM, low serum (0.5% BCS), 28–32 hr, read-out: IC50, inhibition of Gli-driven luciferase reporter expression
From the text: We next examined the inhibition of dynein 2 by dynapyrazole-A in cell-based assays. In cell culture, serum starvation results in the formation of primary cilia, which are required for Hedgehog signaling ([Goetz and Anderson, 2010]). Quiescent cells respond to the Hedgehog ligand or to a synthetic agonist and pathway activity can be measured using a Gli-driven luciferase reporter ([Taipale et al., 2000]; [Chen et al., 2002]). Expression of Hedgehog-driven luciferase reporter was inhibited by dynapyrazole-A (Compound 8, IC50: 1.9 ± 0.6 µM) ~8 fold more potently than ciliobrevin D (IC50: 15.5 ± 3 µM, Figure 3I). […] In this assay, we have also observed cell death at high ciliobrevin D concentrations (200 µM,~10x above its IC50). To stimulate Hedgehog pathway activity, we used the synthetic agonist of smoothened (SAG) ([Chen et al., 2002]), which competes with many known Hedgehog pathway inhibitors for binding to Smoothened, a key protein in this signaling pathway ([Sharpe et al., 2015]). As dynapyrazole-A inhibits Hedgehog signaling at high SAG concentrations (500 nM), it is likely to act downstream of Smoothened, as was previously noted for ciliobrevins and consistent with inhibition of dynein 2 ([Hyman et al., 2009]; [Firestone et al., 2012]).
NIH-3T3 cells stably expressing a luciferase reporter downstream of a Gli binding site (Shh-Light2 cells, RRID: CVCL_2721) were maintained in DMEM with 10% bovine calf serum (BCS). Cells were seeded at a density of 30,000 cells/well in 96-well tissue culture-treated plates (Corning, cat #353072) in 100 μL in DMEM +10% BCS, and incubated for 48 hr ([Taipale et al., 2000]). Wells were washed briefly with PBS. Next 100 μL of low serum media (DMEM +0.5% BCS) containing smoothened agonist (SAG, 500nM), and either solvent control (0.2% DMSO) or test compound (serial threefold dilutions of each inhibitor starting from 20 μM) were added to the wells. After 28–32 hr of inhibitor treatment, cells were washed with 50 μL PBS and lysed for >30 min in 30 μL Passive Lysis Buffer (Promega Dual Luciferase kit, cat E1910). 5 μL of each lysate was transferred to white, solid-bottom 96-well plates (Greiner, cat #655075), followed by rapid addition (within 30 s) of 30 μL of Luciferase Assay Reagent using a multichannel pipette. Luminescence for each condition was read using a Synergy Neo plate reader (5 s integration time per well). Cell line identity was confirmed by measurement of the degree of response to Hedgehog pathway stimulation by the synthetic agonist SAG and using previously-published values from our groups and others as references ([Firestone et al., 2012]; [Hyman et al., 2009]).
Curve fitting: Where dose-response experiments are fit and IC50values given, these are obtained as follows: Individual experiments are treated as separate. The data are fit to a sigmoidal dose-response curve of the form (Y=Bottom + (Top-Bottom)/(1 + 10^((LogIC50-X)*HillSlope)). All variables were allowed to float freely with the exception of the variable denoted ‘bottom’, which was constrained to be >0. The separate IC50 values obtained from fits to each individual experiment's dataset were averaged together and presented as a mean with range (Figure 3G and H) or standard deviation (Figures 3I, 5D, 6E and K).

T1 sequence (Q14204 1320-4646): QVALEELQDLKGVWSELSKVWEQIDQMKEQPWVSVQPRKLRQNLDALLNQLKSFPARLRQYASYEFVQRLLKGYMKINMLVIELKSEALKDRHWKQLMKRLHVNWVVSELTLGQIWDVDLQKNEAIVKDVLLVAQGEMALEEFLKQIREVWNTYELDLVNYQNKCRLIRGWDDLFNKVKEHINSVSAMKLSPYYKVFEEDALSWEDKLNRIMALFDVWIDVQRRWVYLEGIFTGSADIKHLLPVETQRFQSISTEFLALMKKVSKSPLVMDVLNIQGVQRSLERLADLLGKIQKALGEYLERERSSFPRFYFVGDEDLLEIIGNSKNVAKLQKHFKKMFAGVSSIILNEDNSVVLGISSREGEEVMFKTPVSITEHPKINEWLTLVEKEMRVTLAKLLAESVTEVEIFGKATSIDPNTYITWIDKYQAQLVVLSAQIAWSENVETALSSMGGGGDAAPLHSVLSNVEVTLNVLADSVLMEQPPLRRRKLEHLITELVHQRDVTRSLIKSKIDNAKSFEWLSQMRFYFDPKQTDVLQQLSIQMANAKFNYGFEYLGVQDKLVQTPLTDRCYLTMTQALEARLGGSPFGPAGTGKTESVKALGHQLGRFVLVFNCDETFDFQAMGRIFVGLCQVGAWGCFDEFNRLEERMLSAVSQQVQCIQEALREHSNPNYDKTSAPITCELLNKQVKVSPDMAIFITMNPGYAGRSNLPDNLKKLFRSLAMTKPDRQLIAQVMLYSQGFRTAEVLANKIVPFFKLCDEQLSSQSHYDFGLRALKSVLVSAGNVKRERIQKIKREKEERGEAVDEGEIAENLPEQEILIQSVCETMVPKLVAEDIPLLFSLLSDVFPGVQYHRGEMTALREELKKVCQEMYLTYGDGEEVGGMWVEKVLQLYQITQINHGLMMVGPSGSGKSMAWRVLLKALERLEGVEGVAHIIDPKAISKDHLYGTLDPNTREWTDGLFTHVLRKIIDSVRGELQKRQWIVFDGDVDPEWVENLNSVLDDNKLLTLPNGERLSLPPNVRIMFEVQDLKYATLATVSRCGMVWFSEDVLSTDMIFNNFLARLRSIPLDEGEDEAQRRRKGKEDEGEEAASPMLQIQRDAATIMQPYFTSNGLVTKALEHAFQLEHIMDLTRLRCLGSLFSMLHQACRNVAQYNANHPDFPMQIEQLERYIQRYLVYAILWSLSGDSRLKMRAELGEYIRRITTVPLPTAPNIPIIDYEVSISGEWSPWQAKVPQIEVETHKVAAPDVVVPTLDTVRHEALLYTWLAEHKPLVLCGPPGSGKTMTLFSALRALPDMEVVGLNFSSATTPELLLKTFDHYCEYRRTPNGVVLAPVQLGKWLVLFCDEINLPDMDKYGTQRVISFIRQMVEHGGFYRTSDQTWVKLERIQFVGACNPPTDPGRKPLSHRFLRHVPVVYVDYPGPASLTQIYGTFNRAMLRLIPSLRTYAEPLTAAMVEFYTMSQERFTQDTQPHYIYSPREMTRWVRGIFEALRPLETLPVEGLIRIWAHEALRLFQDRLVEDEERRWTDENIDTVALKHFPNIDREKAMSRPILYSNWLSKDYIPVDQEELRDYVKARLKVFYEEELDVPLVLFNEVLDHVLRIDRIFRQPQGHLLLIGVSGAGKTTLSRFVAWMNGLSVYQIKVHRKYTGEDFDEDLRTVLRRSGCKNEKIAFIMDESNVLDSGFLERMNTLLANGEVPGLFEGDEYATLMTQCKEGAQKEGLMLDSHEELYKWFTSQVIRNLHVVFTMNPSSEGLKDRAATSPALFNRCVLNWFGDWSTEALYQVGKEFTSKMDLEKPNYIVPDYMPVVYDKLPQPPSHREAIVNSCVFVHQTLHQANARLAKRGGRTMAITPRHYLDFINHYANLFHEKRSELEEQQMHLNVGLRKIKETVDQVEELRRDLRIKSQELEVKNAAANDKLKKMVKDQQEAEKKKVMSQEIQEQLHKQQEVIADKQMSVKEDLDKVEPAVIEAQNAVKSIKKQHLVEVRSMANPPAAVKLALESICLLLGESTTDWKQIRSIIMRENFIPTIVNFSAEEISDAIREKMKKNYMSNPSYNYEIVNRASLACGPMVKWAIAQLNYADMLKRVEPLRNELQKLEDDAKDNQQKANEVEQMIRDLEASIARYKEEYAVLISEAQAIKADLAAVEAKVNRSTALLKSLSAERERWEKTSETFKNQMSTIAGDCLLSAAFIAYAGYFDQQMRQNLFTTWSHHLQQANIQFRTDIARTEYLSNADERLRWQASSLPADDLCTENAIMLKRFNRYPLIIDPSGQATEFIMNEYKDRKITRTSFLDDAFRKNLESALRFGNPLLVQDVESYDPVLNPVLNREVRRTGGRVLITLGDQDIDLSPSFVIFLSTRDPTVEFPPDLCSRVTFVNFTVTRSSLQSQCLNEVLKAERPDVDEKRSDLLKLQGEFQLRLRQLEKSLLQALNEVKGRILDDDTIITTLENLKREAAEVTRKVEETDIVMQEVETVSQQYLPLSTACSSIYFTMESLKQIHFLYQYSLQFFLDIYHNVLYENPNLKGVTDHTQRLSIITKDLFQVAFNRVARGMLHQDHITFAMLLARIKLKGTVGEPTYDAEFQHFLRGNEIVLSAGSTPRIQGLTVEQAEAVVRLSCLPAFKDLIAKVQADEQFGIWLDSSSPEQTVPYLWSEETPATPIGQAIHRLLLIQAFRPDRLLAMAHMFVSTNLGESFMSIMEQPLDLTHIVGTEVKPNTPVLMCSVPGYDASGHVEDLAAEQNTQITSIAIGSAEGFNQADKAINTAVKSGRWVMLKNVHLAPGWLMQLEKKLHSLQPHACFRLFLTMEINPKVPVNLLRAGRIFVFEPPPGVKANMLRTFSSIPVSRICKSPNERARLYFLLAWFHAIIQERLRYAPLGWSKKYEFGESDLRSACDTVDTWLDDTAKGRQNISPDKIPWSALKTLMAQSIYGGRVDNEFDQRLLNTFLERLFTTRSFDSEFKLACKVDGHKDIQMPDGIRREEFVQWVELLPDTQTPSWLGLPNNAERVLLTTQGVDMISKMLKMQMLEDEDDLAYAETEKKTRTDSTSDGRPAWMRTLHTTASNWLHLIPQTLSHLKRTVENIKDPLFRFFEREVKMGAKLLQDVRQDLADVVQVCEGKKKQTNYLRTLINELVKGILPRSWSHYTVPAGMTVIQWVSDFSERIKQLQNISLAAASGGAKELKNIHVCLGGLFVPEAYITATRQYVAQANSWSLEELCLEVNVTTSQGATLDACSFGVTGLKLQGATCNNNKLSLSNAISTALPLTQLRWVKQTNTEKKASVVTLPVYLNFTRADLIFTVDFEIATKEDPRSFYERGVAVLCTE

| Structure (SMILES) | inhibition at 40 µM (His-dynein 1) | Concentration at which cell death was observed [1] | IC50 [1] | Potency relative to ciliobrevin D, Hedgehog-driven luciferase reporter ([1]; more potent than ciliobrevin D) |
| --- | --- | --- | --- | --- |
| N#Cc1c(C2(c3ccc(Cl)cc3)CC2)nn2c1[nH]c(=O)c1cc(I)ccc12 [Compound 8, 2-[1-(4-chlorophenyl)cyclopropyl]-7-iodo-5-oxo-4H-pyrazolo[1,5-a]quinazoline-3-carbonitrile] | ~30% | 20 µM | 1.9 ± 0.6 µM | ~ 8 fold |
| N#C/C(C(=O)c1ccc(Cl)cc1Cl)=C1\NC(=O)c2ccc(Cl)cc2N1 [ciliobrevin D, reference compound] | ~70% | 200 µM | 15.5 ± 3 µM | – |
